The values that follow come from PMC4359714 (Naunyn-Schmiedeberg's Archives of Pharmacology, 2015).

Data set [1] deals with cold hypersensitivity after CFA or peripheral nerve injury models. As to conditions: ref Knowlton et al. [2011]; cited from earlier work.
In another data set the test system is rats. As to the kind of experiment: Open field activity. The class given is in vivo, rat. The settings on record: 5.6 mg/kg i.p., 30 min before; p < 0.05 vs vehicle (14,484 ± 1686 cm). Here is the method: Rats were habituated in a reversed light cycle room in home cages for at least 1 week and acclimated to the testing room for 1 h prior to dosing. TRPM8 antagonist (10, 30, or 100 mg/kg) or vehicle (5 % Tween 80 in OraPlus®) was injected 2 h before placing an animal in the open-field apparatus. Open-field activity was measured using a system that counts interruptions of a set of photobeams for the course of 60 min (Kinder Scientific, Poway, CA). To begin a session, animals were removed from the home cage and placed individually into an independent Plexiglas box (41 cm L × 41 cm W × 38 cm H) surrounded by a frame consisting of 32 photocells (16Y and 16X) that track the movement of the animal. Photobeam breaks were used as an indication of activity and were measured as the following parameters per minute: basic movements (beam breaks), distance traveled (cm), time spent (s), and number of repetitive beam breaks (i.e., stereotypic movement). Chlordiazepoxide, which consistently elicits a decrease in open field activity, was used as a positive control. Chlordiazepoxide was formulated in saline at 5.6 mg/kg i.p. and dosed 30 min before the start of the open field assay.

In the next data set the test system is SNL rats. Briefly: SNL-induced tactile allodynia (von Frey, up-down method). The class given is in vivo, rat. As to conditions: 200 mg/kg p.o.; p < 0.05 vs vehicle (4.4 ± 1.2 g). The protocol:
SNL surgery was performed using aseptic surgical techniques and a stereomicroscope (Kim and Chung [1992]). Spinal nerve injury was caused by ligating the left L5 and L6 spinal nerves, with special care to avoid damage to the L4 spinal nerve or surrounding area. More specifically, under gaseous anesthesia with a mixture of O2 and isoflurane (3 % for induction and 2 % for maintenance), skin was excised and the longissimus lumborum muscle, part of articular processes (L4-S1), and the fascia above L6 spinal nerve were carefully removed. […]
Behavioral testing Two weeks post surgery, mechanical sensitivity was measured by determining the median 50 % foot withdrawal threshold for von Frey filaments using the up-down method (Chaplan et al. [1994]). […] To avoid possible reflex responses, only abrupt withdrawal of the foot accompanied by pain indicative behaviors (namely paw flinching, shaking, or licking for more than 2 s) was recorded as a response. […]
In vivo IC50 and IC90 estimates using WDS model data were determined by fitting a sigmoidal dose-response curve to individual animal number of WDS versus resulting plasma concentration. Behavioral and electrophysiological data are expressed as mean ± standard error of the mean (S.E.M.). Results were analyzed using one-way analysis of variance (ANOVA) with Dunnett’s multiple-comparisons post-hoc test for significance relative to vehicle. […]

For data set [2], the system named is TRPM8-mediated icilin-induced wet-dog shakes in rats. Briefly: Icilin-induced wet-dog shake (WDS) model. The class given is in vivo, rat. Here is the method: The TRPM8 antagonist (1, 3, or 10 mg/kg) or vehicle control (5 % Tween 80 in OraPlus®) was administered p.o. 90 min prior to administration of icilin (0.5 mg/kg, 1 ml/kg, i.p., 100 % PEG 400). […] Rats were viewed through transparent Plexiglas® observation cylinders that were placed on a custom, opaque, plastic apparatus such that one rat could not view another rat.
In vivo IC50 and IC90 estimates using WDS model data were determined by fitting a sigmoidal dose-response curve to individual animal number of WDS versus resulting plasma concentration. Behavioral and electrophysiological data are expressed as mean ± standard error of the mean (S.E.M.). Results were analyzed using one-way analysis of variance (ANOVA) with Dunnett’s multiple-comparisons post-hoc test for significance relative to vehicle. […] Actual gram values are plotted on a logarithmic scale Y-axis of the figures for convenience. Statistical calculations and graphs were made using GraphPad Prism 5.01 (GraphPad Software Inc, San Diego, CA). Percent responders to menthol stimulation in the ex vivo skin-nerve preparation were compared under vehicle and antagonist conditions through the use of Fisher’s exact test. Responses of C fibers to increasing mechanical forces under vehicle or antagonist conditions were compared using a two-way ANOVA with a Bonferonni post-hoc analysis.

On to `COc1cc(CN(CCN)C(=O)OC(C)c2ccccc2)ccc1OCc1ccccc1` (centres unmarked) [PBMC], for which the “effect on cold hypersensitivity after CFA or peripheral nerve injury” value in data set [1] is listed as “attenuated cold hypersensitivity”.

On to `CNC1=Nc2ccc(Cl)cc2C(c2ccccc2)=[N+]([O-])C1` [chlordiazepoxide, Chlordiazepoxide, reference compound], for which the “total distance traveled, open field (positive control)” value with rats is 9423 ± 745 cm. Turning to `NCC1(CC(=O)O)CCCCC1` [gabapentin, reference compound], in the data set with SNL rats, the “tactile threshold (von Frey), SNL model (positive control)” value is on record as 12.4 ± 1.2 g. As for `O=C1NC(c2cccc([N+](=O)[O-])c2)=CCN1c1ccccc1O` [icilin, reference compound], the “ED80 for induction of wet-dog shakes” value in data set [2] (icilin i.p. 0.3, 0.5, 0.75, 1 mg/kg) was “less than 0.5 mg/kg”. The “ED90 for induction of wet-dog shakes” value in data set [2] (icilin i.p. 0.3–1.0 mg/kg dose-response, interval 0.28–0.75, data not shown) is on record as 0.46 mg/kg.
